In article PMC9146377, “Design and Synthesis of Novel Bis-Imidazolyl Phenyl Butadiyne Derivatives as HCV NS5A Inhibitors” (Pharmaceuticals, 2022):
Like-named read-outs stand apart in the source and are kept apart here.

How the values were obtained:
[1] = tested on: HCV genotype 1b Con-1 subgenomic replicon; assay: Anti-HCV luciferase assay, genotype 1b (Con1) subgenomic replicon in Huh5-2 cells; type: cell-based, Hepatitis C virus; details: for HCV Replicon 1b SI50: CC50/EC50, Huh5-2 cells
Description: (§1) All synthesized compounds were tested against HCV genotype 1b Con-1 subgenomic replicon in the Huh-5-2 stable cell line. Specifically, their activity against viral replication was estimated by measuring firefly luciferase, which is co-expressed by the bicistronic replicon, and their half-maximal effective concentrations (EC50) were determined. In parallel, the half-maximal cytotoxic concentrations (CC50) of the compounds were estimated, and their selective indexes (SI50: CC50/ EC50) were calculated. All novel synthesized compounds were active against HCV 1b with EC50 < 1 µM except for compound 4b (Table 3).
Huh5-2 [65] and Huh7-JFH1 [66] stable cell lines harbor the subgenomic HCV reporter replicon I389luc-ubi-neo/NS3-3′/Con1/5.1 (genotype 1b; strain Con1) and I389luc-ubi-neo/NS3-3′_dg_JFH1 (genotype 2a, JFH1 strain), respectively (kindly provided by R. Bartenschlager, Heidelberg University, Heidelberg, Germany). Huh7.5-3a and Huh7.5-4a stable cell lines harbor the subgenomic HCV reporter replicon S52-SG (Feo) (AII) (genotype 3a; S52 strain) and ED43-SG (Feo) (VYG) (genotype 4a; ED43 strain), respectively (viral constructs kindly provided by C.M. Rice, Rockefeller University, New York, NY, USA). These replicons carry as a first cistron firefly luciferase (F-Luc) and neomycin phosphotransferase genes under the translational control of the HCV internal ribosome entry site (IRES), followed by HCV NS3 to NS5B proteins under the control of the EMCV IRES.
The anti-HCV assay in replicon cells was performed by seeding 1 × 10^4 cells per well in a 96-well plate. After 24 h of incubation at 37 °C (5% CO2) and medium removal, serial dilutions of the test compounds in complete DMEM were added. Cells were lysed after 72 h, and F-Luc activity was measured. The anti-HCV assay for the full-length viral construct H77S.3/GLuc2A was performed after electroporation of Huh7-Lunet cells with viral RNA. Cells were seeded in 96-well plates, the medium was removed 24 h after electroporation, and serial dilutions of the compounds in complete DMEM were added. At 72 h post-treatment, cell supernatants were collected, and G-Luc activity was measured. In addition, the cells were lysed for total protein quantification.
Relative luminescence units (RLU) were expressed as a percentage of the respective units derived from DMSO-treated cells (control). The half-maximal effective concentration (EC50), defined as the concentration of compound that reduces luciferase signal by 50%, was calculated by dose-response curve analysis using Prism 5.0 software (GraphPad Software Inc., San Diego, CA, USA).
The F-Luc activity was measured using the Luciferase Assay System (Promega, Madison, WI, USA), as recommended by the manufacturer. The G-Luc activity was measured using 12 μM coelenterazine (Promega) in assay buffer (50 mM potassium phosphate, pH 7.4, 500 mM NaCl, 1 mM EDTA). Measurements were carried out using a GloMax 20/20 single tube luminometer (Promega) for 10 s. The F-Luc activity was normalized to the total protein amount determined using the Bradford assay reagent (Pierce, Waltham, MA, USA).

[2] = Cytotoxicity assay (intracellular ATP levels) in Huh5-2 replicon cells; type: cell-based; details: human, Huh5-2 cells, read-out: HCV Replicon 1b CC50
Description: as §1
Intracellular ATP levels were measured to determine the cytotoxicity of the compounds in the treated cells. In 96-well plates, 10^4 cells per well were seeded, incubated with serial dilutions of the compounds or DMSO as a control for 72 h at 37 °C (5% CO2) and lysed for ATP measurement. ATP levels were measured using the ViaLight HS BioAssay kit (Lonza, Basel, Switzerland) in a GloMax 20/20 single-tube luminometer (Promega) for 1 s, according to the manufacturer’s protocol. Values were normalized to total protein amounts and used to determine the compound concentration causing 50% cell death (CC50). Nonlinear regression analysis was performed using Prism 5.0 software (GraphPad Software Inc., San Diego, CA, USA).

[3] = Hepatitis C virus, Huh-5-2, 72 h, Huh5-2 cells, Con1 strain, F-Luc, 72 h, mean of three experiments, read-out: HCV Replicon 1b EC50
[4] = Huh5-2 cells, Con1 strain, F-Luc, 72 h, mean of three experiments, read-out: HCV Replicon 1b EC50
[5] = Hepatitis C virus, Huh-5-2, 72 h, read-out: HCV Replicon 1b EC50, Huh5-2 cells, Con1 strain, F-Luc, 72 h, mean of three experiments

Structure (SMILES) | HCV Replicon 1b SI50 [1] | EC50 [1, 3] | EC50 [1, 4] | CC50 at 72 h [2] | melting point | EC50 [1, 5] | EC50 ([1]; Hepatitis C virus, Huh-5-2, Table S1, in vitro result versus genotype 1b, read-out: NS5A EC50)
COC(=O)N[C@@H](CC(C)C)C(=O)N1CCC[C@H]1c1ncc(-c2ccc(C#CC#Cc3ccc(-c4cnc([C@@H]5CCCN5C(=O)[C@H](CC(C)C)NC(=O)OC)[nH]4)cc3)cc2)[nH]1 [Compound 5b, Dimethyl ((2S,2′S)-((2S,2′S)-((buta-1,3-diyne-1,4-diylbis(4,1-phenylene))bis(1H-imidazole-5,2-diyl))bis(pyrrolidine-2,1-diyl))bis(4-methyl-1-oxopentane-1,2-diyl))dicarbamate] | >6203.47 | 0.0161 µM | 0.0161 µM | > 100 µM | 124 to 126 °C | – | –
COC(=O)N[C@H](CC(C)C)C(=O)N1CCC[C@H]1c1ncc(-c2cccc(C#CC#Cc3cccc(-c4cnc([C@@H]5CCCN5C(=O)[C@@H](CC(C)C)NC(=O)OC)[nH]4)c3)c2)[nH]1 [Compound 6a, Dimethyl ((2R,2′R)-((2S,2′S)-((buta-1,3-diyne-1,4-diylbis(3,1-phenylene))bis(1H-imidazole-5,2-diyl))bis(pyrrolidine-2,1-diyl))bis(4-methyl-1-oxopentane-1,2-diyl))dicarbamate] | >1034.23 | – | 0.0967 µM | > 100 µM | 111 to 113 °C | 0.0966 µM | –
COC(=O)N[C@H](CC(C)C)C(=O)N1CCC[C@H]1c1ncc(-c2ccc(C#CC#Cc3ccc(-c4cnc([C@@H]5CCCN5C(=O)[C@@H](CC(C)C)NC(=O)OC)[nH]4)cc3)cc2)[nH]1 [Compound 6b, Dimethyl ((2R,2′R)-((2S,2′S)-((buta-1,3-diyne-1,4-diylbis(4,1-phenylene))bis(1H-imidazole-5,2-diyl))bis(pyrrolidine-2,1-diyl))bis(4-methyl-1-oxopentane-1,2-diyl))dicarbamate] | >1512.63 | – | – | > 100 µM | 129 to 131 °C | 0.0421 µM | 0.0661 µM
CCOC(=O)N[C@@H](CC(C)C)C(=O)N1CCC[C@H]1c1ncc(-c2ccc(C#CC#Cc3ccc(-c4cnc([C@@H]5CCCN5C(=O)[C@H](CC(C)C)NC(=O)OCC)[nH]4)cc3)cc2)[nH]1 [Compound 7b, Diethyl ((2S,2′S)-((2S,2′S)-((buta-1,3-diyne-1,4-diylbis(4,1-phenylene))bis(1H-imidazole-5,2-diyl))bis(pyrrolidine-2,1-diyl))bis(4-methyl-1-oxopentane-1,2-diyl))dicarbamate] | >1699.23 | 0.0588 µM | – | > 100 µM | 118 to 120 °C | – | –
CCOC(=O)N[C@H](CC(C)C)C(=O)N1CCC[C@H]1c1ncc(-c2cccc(C#CC#Cc3cccc(-c4cnc([C@@H]5CCCN5C(=O)[C@@H](CC(C)C)NC(=O)OCC)[nH]4)c3)c2)[nH]1 [Compound 8a, Diethyl ((2R,2′R)-((2S,2′S)-((buta-1,3-diyne-1,4-diylbis(3,1-phenylene))bis(1H-imidazole-5,2-diyl))bis(pyrrolidine-2,1-diyl))bis(4-methyl-1-oxopentane-1,2-diyl))dicarbamate] | >1170.82 | – | 0.0854 µM | > 100 µM | 109 to 111 °C | 0.0854 µM | –
CCOC(=O)N[C@H](CC(C)C)C(=O)N1CCC[C@H]1c1ncc(-c2ccc(C#CC#Cc3ccc(-c4cnc([C@@H]5CCCN5C(=O)[C@@H](CC(C)C)NC(=O)OCC)[nH]4)cc3)cc2)[nH]1 [Compound 8b, Diethyl ((2R,2′R)-((2S,2′S)-((buta-1,3-diyne-1,4-diylbis(4,1-phenylene))bis(1H-imidazole-5,2-diyl))bis(pyrrolidine-2,1-diyl))bis(4-methyl-1-oxopentane-1,2-diyl))dicarbamate] | >1289.98 | 0.0775 µM | – | > 100 µM | 129 to 132 °C | – | –
COC(=O)N[C@H](C(=O)N1CCC[C@H]1c1ncc(-c2cccc(C#CC#Cc3cccc(-c4cnc([C@@H]5CCCN5C(=O)[C@@H](NC(=O)OC)c5ccccc5)[nH]4)c3)c2)[nH]1)c1ccccc1 [Compound 9a, Dimethyl ((1S,1′S)-((2S,2′S)-((buta-1,3-diyne-1,4-diylbis(3,1-phenylene))bis(1H-imidazole-5,2-diyl))bis(pyrrolidine-2,1-diyl))bis(2-oxo-1-phenylethane-2,1-diyl))dicarbamate] | >1611.86 | – | 0.062 µM | > 100 µM | 125 to 127 °C | 0.062 µM | –
COC(=O)N[C@@H](C(=O)N1CCC[C@H]1c1ncc(-c2ccc(C#CC#Cc3ccc(-c4cnc([C@@H]5CCCN5C(=O)[C@H](NC(=O)OC)c5ccccc5)[nH]4)cc3)cc2)[nH]1)c1ccccc1 [Compound 10b, Dimethyl ((1R,1′R)-((2S,2′S)-((buta-1,3-diyne-1,4-diylbis(4,1-phenylene))bis(1H-imidazole-5,2-diyl))bis(pyrrolidine-2,1-diyl))bis(2-oxo-1-phenylethane-2,1-diyl))dicarbamate] | >1180.77 | 0.0847 µM | – | > 100 µM | 125 to 127 °C | – | –
